We go through 13 molecules from patent publication US20050260126A1 (priority 2002, published 2005).

Data set [1] concerns abnormal prion proteins (kuru plaques) in brain sections of GSS patients. Also on record: species or system human. The note with it: GSS patient brain sections, 10-200 μM in 50% ethanol, 30 minutes.
Data set [2] deals with abnormal prion proteins in ScN2a cells with persistent infection of scrapie. Nature of the data set: cells. Type of data set: cell-based, mouse. The settings on record: for IC50: Mus musculus, ScN2a, 96 h, read-out: Inhibitory effects on producing abnormal prion protein IC50; for Inhibitory effects on producing abnormal prion proteins (in words): ScN2a cells.
The conditions of data set [3]: Slc:ICR, mouse, not told, iv.
Data set [4] concerns ScN2a cells. The settings on record: for Concentration of inhibiting cell proliferation TC: mouse.
Data set [5] can be described thus: in vivo. The note with it: male, Crj:CD1, mouse, iv.
The test system of data set [6] is abnormal prion proteins in ScN2a cells with persistent infection of scrapie. The note with it: read-out: Inhibitory effects on producing abnormal prion protein IC50 (quinacrine, literature), Doh-ura et al. 2000; cited from earlier work.

Molecules are shown by their SMILES. Structures can show the parent of a compound that is named as a salt. Where two headings read alike, the source gives them in different places.

Regarding `C(=C\c1nc2ccccc2s1)/c1ccccc1` [Compound N-438, 2-(2-phenylethenyl)-benzothiazole], in data set [1], the “Detection of spotted depositions of abnormal prion proteins (fluorescent signals)” value (from here on “Detection”) is on record as “spotted fluorescent signals were observed”. Moreover, in data set [2], the half-maximal inhibitory concentration (IC50) was found to be 0.01 µM. For the same molecule, in data set [3], the “Permeability into the brain: content in Brain” value is 11 % ID/g or ml and the “Permeability into the brain: content in Plasma” value is on record as 1.9 % ID/g or ml. Moreover, in data set [4], the “Concentration of inhibiting cell proliferation TC” value is 100 µM. For the same molecule, the MTD in data set [5] is at least 10 mg/kg.

In the case of `CCN(CC)c1ccc(/C=C/c2nc3ccccc3s2)cc1` [BF-124, 4-[2-(2-benzothiazolyl)-ethenyl]-N,N-diethyl-benzenamine hydrochloride], the “Detection” value in data set [1] is listed as “spotted fluorescent signals were observed”. In data set [2], the IC50 turned out to be 0.1 µM. In data set [3], the “Permeability into the brain: content in Brain” value is 2.4 % ID/g or ml and the “Permeability into the brain: content in Plasma” value is given as 1.6 % ID/g or ml. In addition, the “Concentration of inhibiting cell proliferation TC” value in data set [4] is 100 µM. The molecule also displayed an MTD in data set [5] of at least 10 mg/kg.

`CCN(CC)CCCC(C)Nc1c2ccc(Cl)cc2nc2ccc(OC)cc12` (centres unmarked) [quinacrine]: the IC50 in data set [6] was 0.4 µM.

Take `CNc1ccc(/C=C/c2nc3cc(F)ccc3o2)cc1` [BF-145, 2-(4-methylamino)-stryl-5-fluoro-benzoxazole]: the “Detection” value in data set [1] was “spotted fluorescent signals were observed”. The IC50 in data set [2] amounted to 0.005 µM. In addition, in data set [3], the “Permeability into the brain: content in Brain” value is 4.4 % ID/g or ml and the “Permeability into the brain: content in Plasma” value was 1.2 % ID/g or ml. The “Concentration of inhibiting cell proliferation TC” value in data set [4] was 50 µM. Besides, the MTD in data set [5] was at least 10 mg/kg.

In the case of `CNc1ccc(/C=C/c2nc3ccc(OCCF)cc3o2)cc1` [BF-168, 6-(2-fluoroethoxy)-2-[2-(4-methylamino-phenyl)ethenyl]-benzoxazole], in data set [1], the “Detection” value is reported as “spotted fluorescent signals were observed”. For the same molecule, in data set [2], the IC50 is 0.001 µM and the “Inhibitory effects on producing abnormal prion proteins (in words)” value (“Inhibitory effects” for short) is “highly inhibitory effects”. In data set [4], the “Concentration of inhibiting cell proliferation TC” value turned out to be 10 µM. In addition, in data set [5], the MTD is at least 10 mg/kg.

Take `C(=C\c1nc2ccccc2o1)/c1ccccc1` [Compound N-407, 2-(2-phenylethenyl)-benzoxazole]: in data set [1], the “Detection” value is on record as “spotted fluorescent signals were observed”. Besides, in data set [2], the IC50 came out at 0.001 µM and the “Inhibitory effects” value is listed as “highly inhibitory effects”. For the same molecule, in data set [3], the “Permeability into the brain: content in Brain” value is reported as 16.0 % ID/g or ml and the “Permeability into the brain: content in Plasma” value was 1.3 % ID/g or ml. In data set [4], the “TC and safety concentration margin (in words)” value is on record as “higher TCs, therefore higher safety concentration margins”; the “Concentration of inhibiting cell proliferation TC” value amounted to 100 µM. For the same molecule, in data set [5], the MTD was at least 10 mg/kg.

`CNc1ccc(/C=C/c2nc3ccccc3o2)cc1` [BF-169, 2-(4-methylamino)-styrylbenzoxazole]: the “Detection” value in data set [1] is recorded as “spotted fluorescent signals were observed”. In data set [2], the IC50 stood at 0.01 µM. Further, the “Concentration of inhibiting cell proliferation TC” value in data set [4] stood at 100 µM. Besides, the MTD in data set [5] was at least 10 mg/kg.

`CCN(CC)c1ccc(/C=C/c2nc3ccccc3o2)cc1` [BF-125, 4-[2-(2-benzoxazolyl)ethenyl]-N,N-diethyl benzeneamine hydrochloride]: the “Detection” value in data set [1] is “spotted fluorescent signals were observed”. Further, the IC50 in data set [2] worked out at 0.1 µM. Moreover, in data set [3], the “Permeability into the brain: content in Brain” value was 3.0 % ID/g or ml and the “Permeability into the brain: content in Plasma” value was 2.5 % ID/g or ml. Moreover, in data set [4], the “Concentration of inhibiting cell proliferation TC” value is 50 µM. The MTD in data set [5] is at least 10 mg/kg.

For the molecule `CN(C)c1ncc(/C=C/c2nc3ccc(OCCF)cc3o2)s1` [BF-227, 2-[2-(2-dimethylamino-thiazol-5-yl)ethenyl]-6-(2-fluoroethoxy) benzoxazole], the “Detection” value in data set [1] is given as “spotted fluorescent signals were observed”. In data set [2], the IC50 came out at 0.004 µM. Also, in data set [3], the “Permeability into the brain: content in Brain” value is on record as 7.9 % ID/g or ml and the “Permeability into the brain: content in Plasma” value is recorded as 2.1 % ID/g or ml. Besides, in data set [4], the “Concentration of inhibiting cell proliferation TC” value came to 10 µM. In data set [5], the MTD is at least 10 mg/kg.

As for `CNc1ccc(/C=C/c2nc3ccc(O)cc3o2)cc1` [BF-165, 2-(4-methylamino)-styl-6-hydroxy-benzoazole], the “Detection” value in data set [1] was “spotted fluorescent signals were observed”. Moreover, in data set [2], the IC50 was 0.01 µM. Also, in data set [3], the “Permeability into the brain: content in Brain” value is reported as 7.2 % ID/g or ml and the “Permeability into the brain: content in Plasma” value is given as 1.9 % ID/g or ml. In data set [4], the “Concentration of inhibiting cell proliferation TC” value is 100 µM. The molecule further returned an MTD in data set [5] of at least 10 mg/kg.

`CN(C)c1ccc(/C=C/c2ccc3ccccc3n2)cc1` [BF-179, 2-[2-(4-dimethylamino-phenyl)ethenyl]-quinoline]: in data set [1], the “Detection” value is “spotted fluorescent signals were observed”. Besides, in data set [2], the concentration for half-maximal inhibition (IC50) came to 0.005 µM. Besides, in data set [3], the “Permeability into the brain: content in Brain” value was 4.3 % ID/g or ml and the “Permeability into the brain: content in Plasma” value was 1.7 % ID/g or ml. The “Concentration of inhibiting cell proliferation TC” value in data set [4] was 5 µM. In data set [5], the MTD was at least 10 mg/kg.

Turning to `Cc1ccc2sc(/C=C/c3ccc(Cl)cc3)nc2c1` [Compound N-441, 2-[2-(4-chlorophenyl)ethenyl]-5-methyl-benzothiazole], the “Detection” value in data set [1] was “spotted fluorescent signals were observed”. For the same molecule, in data set [2], the IC50 worked out at 0.001 µM and the “Inhibitory effects” value is on record as “highly inhibitory effects”. Further, in data set [3], the “Permeability into the brain: content in Brain” value was 5.6 % ID/g or ml and the “Permeability into the brain: content in Plasma” value is on record as 2.7 % ID/g or ml. In data set [4], the “TC and safety concentration margin (in words)” value is on record as “higher TCs, therefore higher safety concentration margins”; the “Concentration of inhibiting cell proliferation TC” value came out at 100 µM. In data set [5], this molecule gave an MTD of at least 10 mg/kg.

With `CCN(CC)c1ccc(/C=C/c2nc3ccccc3[nH]2)cc1` [BF-126, 4-[2-(2-benzimidazole)-ethenyl]-N,N-diethyl-benzenamine p-toluenesulfonate], the “Detection” value in data set [1] is on record as “spotted fluorescent signals were observed”. In addition, the IC50 in data set [2] is 0.1 µM. In addition, in data set [3], the “Permeability into the brain: content in Brain” value was 7.2 % ID/g or ml and the “Permeability into the brain: content in Plasma” value is recorded as 2.7 % ID/g or ml. In addition, the “Concentration of inhibiting cell proliferation TC” value in data set [4] came to 25 µM. Moreover, in data set [5], the MTD is at least 10 mg/kg.
